Source: patent US20260232767A1, “INTERLEUKIN-23 RECEPTOR ANTAGONIST PEPTIDES FOR USE IN THE TREATMENT OF PSORIASIS” (Janssen Pharmaceutica NV, priority 2023, published 2026)

System: subjects with moderate-to-severe plaque psoriasis
Assay: Hematology and chemistry laboratory values by CTCAE grade
Type: in vivo, human
Conditions: through Week 56
From the text: The proportion of participants who discontinued study intervention due to one or more AEs was low (n=4). All events were singular in nature with no apparent dose-dependent increase (Table 48 and Table 52). The number of participants with abnormal hematology and chemistry laboratory values with CTCAE toxicity grade≥3 were low through the end of the study (Table 43 through Table 46). There was no apparent dose-dependent increase in laboratory abnormality occurrences.

[1] = Placebo → 100 mg QD after crossover

CC(=O)NCCCC[C@@H]1NC(=O)[C@H](Cc2c[nH]c3c(C)cccc23)NC(=O)[C@H]([C@@H](C)O)NC(=O)[C@H](CC(N)=O)NC(=O)[C@@H](NC(C)=O)C(C)(C)SSC(C)(C)[C@@H](C(=O)N[C@@H](Cc2ccc(OCCN)cc2)C(=O)N[C@@H](Cc2ccc3ccccc3c2)C(=O)NC2(C(=O)N[C@@H](CCC(=O)O)C(=O)N[C@@H](CC(N)=O)C(=O)N[C@@H](Cc3cccnc3)C(=O)N(C)CC(N)=O)CCOCC2)NC1=O [IL-23 receptor antagonist peptide, Ac-[Pen]*-N-T-[W(7-Me)]-[Lys(Ac)]-[Pen]*-Phe[4-(2-aminoethoxy)]-[2-Nal]-[THP]-E-N-[3-Pal]-Sarc-NH2 (*[Pen]-[Pen]* formdisulfidebond)]
WBC (×10^9/L) (increased): subjects with Grade 2 (100 mg QD): 0 | WBC (×10^9/L) (increased): subjects with Grade 3 (100 mg QD): 0 | WBC (×10^9/L) (increased): subjects with Grade 4 (100 mg QD): 0 | WBC (×10^9/L) (increased): subjects with postbaseline maximum toxicity grade >0 (100 mg QD): 0 | Hemoglobin (g/L) (decreased): subjects with Grade 3 (Combined Formula (I) regimens): 0 | Hemoglobin (g/L) (decreased): subjects with Grade 4 (Combined Formula (I) regimens): 0 | Hemoglobin (g/L) (increased): subjects with Grade 2 (Combined Formula (I) regimens): 0 | Hemoglobin (g/L) (increased): subjects with Grade 3 (Combined Formula (I) regimens): 0 | Hemoglobin (g/L) (increased): subjects with Grade 4 (Combined Formula (I) regimens): 0 | Lymphocytes (×10^9/L) (decreased): subjects with Grade 3 (Combined Formula (I) regimens): 0 | Lymphocytes (×10^9/L) (decreased): subjects with Grade 4 (Combined Formula (I) regimens): 0 | Lymphocytes (×10^9/L) (increased): subjects with Grade 1 (Combined Formula (I) regimens): 0 | Lymphocytes (×10^9/L) (increased): subjects with Grade 3 (Combined Formula (I) regimens): 0 | Lymphocytes (×10^9/L) (increased): subjects with Grade 4 (Combined Formula (I) regimens): 0 | Neutrophils (×10^9/L) (decreased): subjects with Grade 3 (Combined Formula (I) regimens): 0 | Neutrophils (×10^9/L) (decreased): subjects with Grade 4 (Combined Formula (I) regimens): 0 | Platelets (×10^9/L) (decreased): subjects with Grade 2 (Combined Formula (I) regimens): 0 | Platelets (×10^9/L) (decreased): subjects with Grade 3 (Combined Formula (I) regimens): 0 | Platelets (×10^9/L) (decreased): subjects with Grade 4 (Combined Formula (I) regimens): 0 | WBC (×10^9/L) (decreased): subjects with Grade 3 (Combined Formula (I) regimens): 0 | WBC (×10^9/L) (decreased): subjects with Grade 4 (Combined Formula (I) regimens): 0 | WBC (×10^9/L) (increased): subjects with Grade 1 (Combined Formula (I) regimens): 0 | WBC (×10^9/L) (increased): subjects with Grade 2 (Combined Formula (I) regimens): 0 | WBC (×10^9/L) (increased): subjects with Grade 3 (Combined Formula (I) regimens): 0 | WBC (×10^9/L) (increased): subjects with Grade 4 (Combined Formula (I) regimens): 0 | WBC (×10^9/L) (increased): subjects with postbaseline maximum toxicity grade >0 (Combined Formula (I) regimens): 0 | Alanine Aminotransferase (increased): Subjects with Grade 4 (Combined): 0 | Albumin (decreased): Subjects with Grade 1 (Combined): 0 | Albumin (decreased): Subjects with Grade 2 (Combined): 0 | Albumin (decreased): Subjects with Grade 3 (Combined): 0 | Albumin (decreased): Subjects with Grade 4 (Combined): 0 | Albumin (decreased): Subjects with postbaseline maximum toxicity grade >0 (Combined): 0 | Alkaline Phosphatase (increased): Subjects with Grade 2 (Combined): 0 | Alkaline Phosphatase (increased): Subjects with Grade 3 (Combined): 0 | Alkaline Phosphatase (increased): Subjects with Grade 4 (Combined): 0 | Aspartate Aminotransferase (increased): Subjects with Grade 4 (Combined): 0 | Calcium corrected (decreased): Subjects with Grade 3 (Combined): 0 | Calcium corrected (decreased): Subjects with Grade 4 (Combined): 0 | Calcium corrected (increased): Subjects with Grade 2 (Combined): 0 | Calcium corrected (increased): Subjects with Grade 3 (Combined): 0 | Calcium corrected (increased): Subjects with Grade 4 (Combined): 0 | Cholesterol (increased): Subjects with Grade 3 (Combined): 0 | Cholesterol (increased): Subjects with Grade 4 (Combined): 0 | Creatinine (increased): Subjects with Grade 3 (Combined): 0 | Creatinine (increased): Subjects with Grade 4 (Combined): 0 | Gamma Glutamyl Transferase (increased): Subjects with Grade 3 (Combined): 0 | Gamma Glutamyl Transferase (increased): Subjects with Grade 4 (Combined): 0 | Glucose (decreased): Subjects with Grade 3 (Combined): 0 | Glucose (decreased): Subjects with Grade 4 (Combined): 0 | Magnesium (decreased): Subjects with Grade 2 (Combined): 0 | Magnesium (decreased): Subjects with Grade 3 (Combined): 0 | Magnesium (decreased): Subjects with Grade 4 (Combined): 0 | Magnesium (increased): Subjects with Grade 2 (Combined): 0 | Magnesium (increased): Subjects with Grade 3 (Combined): 0 | Magnesium (increased): Subjects with Grade 4 (Combined): 0 | Potassium (decreased): Subjects with Grade 1 (Combined): 0 | Potassium (decreased): Subjects with Grade 3 (Combined): 0 | Potassium (decreased): Subjects with Grade 4 (Combined): 0 | Potassium (increased): Subjects with Grade 4 (Combined): 0 | Sodium (decreased): Subjects with Grade 2 (Combined): 0 | Sodium (decreased): Subjects with Grade 3 (Combined): 0 | Sodium (decreased): Subjects with Grade 4 (Combined): 0 | Sodium (increased): Subjects with Grade 2 (Combined): 0 | Sodium (increased): Subjects with Grade 3 (Combined): 0 | Sodium (increased): Subjects with Grade 4 (Combined): 0 | Total Bilirubin (increased): Subjects with Grade 3 (Combined): 0 | Total Bilirubin (increased): Subjects with Grade 4 (Combined): 0 | Hemoglobin (g/L) (decreased): subjects with Grade 2 [1]: 0 | Hemoglobin (g/L) (decreased): subjects with Grade 3 [1]: 0 | Hemoglobin (g/L) (decreased): subjects with Grade 4 [1]: 0 | Hemoglobin (g/L) (increased): subjects with Grade 2 [1]: 0 | Hemoglobin (g/L) (increased): subjects with Grade 3 [1]: 0 | Hemoglobin (g/L) (increased): subjects with Grade 4 [1]: 0 | Lymphocytes (×10^9/L) (decreased): subjects with Grade 1 [1]: 0 | Lymphocytes (×10^9/L) (decreased): subjects with Grade 3 [1]: 0 | Lymphocytes (×10^9/L) (decreased): subjects with Grade 4 [1]: 0 | Lymphocytes (×10^9/L) (increased): subjects with Grade 1 [1]: 0 | Lymphocytes (×10^9/L) (increased): subjects with Grade 2 [1]: 0 | Lymphocytes (×10^9/L) (increased): subjects with Grade 3 [1]: 0 | Lymphocytes (×10^9/L) (increased): subjects with Grade 4 [1]: 0 | Lymphocytes (×10^9/L) (increased): subjects with postbaseline maximum toxicity grade >0 [1]: 0 | Platelets (×10^9/L) (decreased): subjects with Grade 2 [1]: 0 | Platelets (×10^9/L) (decreased): subjects with Grade 3 [1]: 0 | Platelets (×10^9/L) (decreased): subjects with Grade 4 [1]: 0 | WBC (×10^9/L) (decreased): subjects with Grade 2 [1]: 0 | WBC (×10^9/L) (decreased): subjects with Grade 3 [1]: 0 | WBC (×10^9/L) (decreased): subjects with Grade 4 [1]: 0 | WBC (×10^9/L) (increased): subjects with Grade 1 [1]: 0 | WBC (×10^9/L) (increased): subjects with Grade 2 [1]: 0 | WBC (×10^9/L) (increased): subjects with Grade 3 [1]: 0 | WBC (×10^9/L) (increased): subjects with Grade 4 [1]: 0 | WBC (×10^9/L) (increased): subjects with postbaseline maximum toxicity grade >0 [1]: 0 | Alanine Aminotransferase (increased): Subjects with Grade 1 (Placebo → 100 mg QD): 10 | Alanine Aminotransferase (increased): Subjects with Grade 3 (Placebo → 100 mg QD): 0 | Alanine Aminotransferase (increased): Subjects with Grade 4 (Placebo → 100 mg QD): 0 | Albumin (decreased): Subjects with Grade 1 (Placebo → 100 mg QD): 0 | Albumin (decreased): Subjects with Grade 2 (Placebo → 100 mg QD): 0 | Albumin (decreased): Subjects with Grade 3 (Placebo → 100 mg QD): 0 | Albumin (decreased): Subjects with Grade 4 (Placebo → 100 mg QD): 0 | Albumin (decreased): Subjects with postbaseline maximum toxicity grade >0 (Placebo → 100 mg QD): 0 | Alkaline Phosphatase (increased): Subjects with Grade 2 (Placebo → 100 mg QD): 0 | Alkaline Phosphatase (increased): Subjects with Grade 3 (Placebo → 100 mg QD): 0 | Alkaline Phosphatase (increased): Subjects with Grade 4 (Placebo → 100 mg QD): 0 | Aspartate Aminotransferase (increased): Subjects with Grade 4 (Placebo → 100 mg QD): 0 | Aspartate Aminotransferase (increased): Subjects with postbaseline maximum toxicity grade >0 (Placebo → 100 mg QD): 9 | Calcium corrected (decreased): Subjects with Grade 3 (Placebo → 100 mg QD): 0 | Calcium corrected (decreased): Subjects with Grade 4 (Placebo → 100 mg QD): 0 | Calcium corrected (increased): Subjects with Grade 1 (Placebo → 100 mg QD): 0 | Calcium corrected (increased): Subjects with Grade 2 (Placebo → 100 mg QD): 0 | Calcium corrected (increased): Subjects with Grade 3 (Placebo → 100 mg QD): 0 | Calcium corrected (increased): Subjects with Grade 4 (Placebo → 100 mg QD): 0 | Calcium corrected (increased): Subjects with postbaseline maximum toxicity grade >0 (Placebo → 100 mg QD): 0 | Cholesterol (increased): Subjects with Grade 1 (Placebo → 100 mg QD): 0 | Cholesterol (increased): Subjects with Grade 2 (Placebo → 100 mg QD): 0 | Cholesterol (increased): Subjects with Grade 3 (Placebo → 100 mg QD): 0 | Cholesterol (increased): Subjects with Grade 4 (Placebo → 100 mg QD): 0 | Cholesterol (increased): Subjects with postbaseline maximum toxicity grade >0 (Placebo → 100 mg QD): 0 | Creatine Kinase (increased): Subjects with Grade 2 (Placebo → 100 mg QD): 0 | Creatine Kinase (increased): Subjects with Grade 4 (Placebo → 100 mg QD): 0 | Creatinine (increased): Subjects with Grade 2 (Placebo → 100 mg QD): 0 | Creatinine (increased): Subjects with Grade 3 (Placebo → 100 mg QD): 0 | Creatinine (increased): Subjects with Grade 4 (Placebo → 100 mg QD): 0 | Gamma Glutamyl Transferase (increased): Subjects with Grade 3 (Placebo → 100 mg QD): 0 | Gamma Glutamyl Transferase (increased): Subjects with Grade 4 (Placebo → 100 mg QD): 0 | Glucose (decreased): Subjects with Grade 3 (Placebo → 100 mg QD): 0 | Glucose (decreased): Subjects with Grade 4 (Placebo → 100 mg QD): 0 | Magnesium (decreased): Subjects with Grade 2 (Placebo → 100 mg QD): 0 | Magnesium (decreased): Subjects with Grade 3 (Placebo → 100 mg QD): 0 | Magnesium (decreased): Subjects with Grade 4 (Placebo → 100 mg QD): 0 | Magnesium (increased): Subjects with Grade 2 (Placebo → 100 mg QD): 0 | Magnesium (increased): Subjects with Grade 3 (Placebo → 100 mg QD): 0 | Magnesium (increased): Subjects with Grade 4 (Placebo → 100 mg QD): 0 | Potassium (decreased): Subjects with Grade 1 (Placebo → 100 mg QD): 0 | Potassium (decreased): Subjects with Grade 3 (Placebo → 100 mg QD): 0 | Potassium (decreased): Subjects with Grade 4 (Placebo → 100 mg QD): 0 | Potassium (increased): Subjects with Grade 3 (Placebo → 100 mg QD): 0 | Potassium (increased): Subjects with Grade 4 (Placebo → 100 mg QD): 0 | Sodium (decreased): Subjects with Grade 1 (Placebo → 100 mg QD): 0 | Sodium (decreased): Subjects with Grade 2 (Placebo → 100 mg QD): 0 | Sodium (decreased): Subjects with Grade 3 (Placebo → 100 mg QD): 0 | Sodium (decreased): Subjects with Grade 4 (Placebo → 100 mg QD): 0 | Sodium (decreased): Subjects with postbaseline maximum toxicity grade >0 (Placebo → 100 mg QD): 0 | Sodium (increased): Subjects with Grade 1 (Placebo → 100 mg QD): 0 | Sodium (increased): Subjects with Grade 2 (Placebo → 100 mg QD): 0 | Sodium (increased): Subjects with Grade 3 (Placebo → 100 mg QD): 0 | Sodium (increased): Subjects with Grade 4 (Placebo → 100 mg QD): 0 | Sodium (increased): Subjects with postbaseline maximum toxicity grade >0 (Placebo → 100 mg QD): 0 | Total Bilirubin (increased): Subjects with Grade 2 (Placebo → 100 mg QD): 0 | Total Bilirubin (increased): Subjects with Grade 3 (Placebo → 100 mg QD): 0 | Total Bilirubin (increased): Subjects with Grade 4 (Placebo → 100 mg QD): 0 | Triglycerides (increased): Subjects with Grade 3 (Placebo → 100 mg QD): 0 | Triglycerides (increased): Subjects with Grade 4 (Placebo → 100 mg QD): 0
